The text below walks through data of ChEMBL document CHEMBL5653631, “A Potent and Selective ULK1 Inhibitor Suppresses Autophagy and Sensitizes Cancer Cells to Nutrient Stress” (iScience, 2018).

Assay [1] addresses T1, Rhodopsin kinase GRK1 (Homo sapiens) (UniProt Q15835).
T1 sequence (whole entry): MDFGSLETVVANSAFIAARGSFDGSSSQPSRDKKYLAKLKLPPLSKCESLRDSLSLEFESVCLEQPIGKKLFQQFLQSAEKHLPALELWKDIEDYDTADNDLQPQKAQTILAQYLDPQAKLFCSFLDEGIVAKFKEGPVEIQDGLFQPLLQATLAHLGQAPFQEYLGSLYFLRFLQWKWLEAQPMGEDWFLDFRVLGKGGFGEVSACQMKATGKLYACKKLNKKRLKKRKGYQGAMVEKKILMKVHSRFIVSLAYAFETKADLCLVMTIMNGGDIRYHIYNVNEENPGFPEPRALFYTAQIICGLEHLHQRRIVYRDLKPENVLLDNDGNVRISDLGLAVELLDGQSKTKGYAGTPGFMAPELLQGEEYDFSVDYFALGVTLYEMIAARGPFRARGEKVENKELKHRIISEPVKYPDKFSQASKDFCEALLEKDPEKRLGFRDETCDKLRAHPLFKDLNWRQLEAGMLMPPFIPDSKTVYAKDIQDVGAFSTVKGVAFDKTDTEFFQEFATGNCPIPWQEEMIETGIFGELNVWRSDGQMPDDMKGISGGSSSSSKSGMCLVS
Nature of the assay: Inhibition of human recombinant RHOK at 40 nM related to control ULK1.

For assay [2], the target named is T2, Ephrin type-B receptor 1 (Homo sapiens) (UniProt P54762).
T2 sequence (whole entry): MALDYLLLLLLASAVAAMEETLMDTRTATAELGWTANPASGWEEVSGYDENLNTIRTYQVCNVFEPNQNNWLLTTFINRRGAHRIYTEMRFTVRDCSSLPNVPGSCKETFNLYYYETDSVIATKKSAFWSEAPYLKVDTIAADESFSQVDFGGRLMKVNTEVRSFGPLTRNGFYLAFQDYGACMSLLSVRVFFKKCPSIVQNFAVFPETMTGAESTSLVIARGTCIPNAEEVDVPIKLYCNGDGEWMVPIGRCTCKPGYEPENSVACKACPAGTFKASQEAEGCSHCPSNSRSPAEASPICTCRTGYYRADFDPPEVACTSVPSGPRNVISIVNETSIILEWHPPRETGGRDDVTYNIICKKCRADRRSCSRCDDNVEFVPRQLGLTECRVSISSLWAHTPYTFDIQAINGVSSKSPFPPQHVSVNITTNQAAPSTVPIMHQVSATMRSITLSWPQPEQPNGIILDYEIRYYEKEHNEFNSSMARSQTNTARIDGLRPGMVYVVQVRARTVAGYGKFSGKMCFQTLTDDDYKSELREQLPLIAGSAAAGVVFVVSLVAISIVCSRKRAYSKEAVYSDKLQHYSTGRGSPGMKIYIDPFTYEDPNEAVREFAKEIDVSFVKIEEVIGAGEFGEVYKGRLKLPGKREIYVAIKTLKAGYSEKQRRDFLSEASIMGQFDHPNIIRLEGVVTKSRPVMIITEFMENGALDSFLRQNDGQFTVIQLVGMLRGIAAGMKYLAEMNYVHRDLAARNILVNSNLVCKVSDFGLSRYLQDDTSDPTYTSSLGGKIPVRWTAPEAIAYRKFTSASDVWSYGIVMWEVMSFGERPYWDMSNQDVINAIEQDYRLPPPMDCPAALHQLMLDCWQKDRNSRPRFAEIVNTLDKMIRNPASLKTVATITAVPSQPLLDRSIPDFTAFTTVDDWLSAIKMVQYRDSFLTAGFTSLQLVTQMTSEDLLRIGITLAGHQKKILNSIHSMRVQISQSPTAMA
Nature of the assay: Inhibition of human recombinant EphB1 at 40 nM related to control ULK1.

The target of assay [3] is Tyrosine-protein kinase CSK (Homo sapiens) (UniProt P41240). Nature of the assay: Inhibition of human recombinant CSK at 40 nM related to control ULK1.
Chain of Tyrosine-protein kinase CSK (Homo sapiens) (P41240 2-450 limits assumed): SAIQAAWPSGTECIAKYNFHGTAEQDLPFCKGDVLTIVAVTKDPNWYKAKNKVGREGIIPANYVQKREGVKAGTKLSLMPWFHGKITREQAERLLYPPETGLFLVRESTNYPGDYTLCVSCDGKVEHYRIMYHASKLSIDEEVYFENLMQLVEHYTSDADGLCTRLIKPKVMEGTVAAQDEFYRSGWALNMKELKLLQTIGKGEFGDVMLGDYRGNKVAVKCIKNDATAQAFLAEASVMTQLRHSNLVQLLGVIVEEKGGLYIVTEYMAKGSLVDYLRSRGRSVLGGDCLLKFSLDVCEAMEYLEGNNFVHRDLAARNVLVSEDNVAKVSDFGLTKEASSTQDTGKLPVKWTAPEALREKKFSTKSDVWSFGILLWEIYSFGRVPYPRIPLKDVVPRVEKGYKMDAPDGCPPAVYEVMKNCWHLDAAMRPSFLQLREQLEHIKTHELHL
The target of assay [4] is Tyrosine-protein kinase Fgr (Homo sapiens) (UniProt P09769). Nature of the assay: Inhibition of human recombinant FGR at 40 nM related to control ULK1.
Chain of Tyrosine-protein kinase Fgr (Homo sapiens) (P09769 2-529 limits assumed): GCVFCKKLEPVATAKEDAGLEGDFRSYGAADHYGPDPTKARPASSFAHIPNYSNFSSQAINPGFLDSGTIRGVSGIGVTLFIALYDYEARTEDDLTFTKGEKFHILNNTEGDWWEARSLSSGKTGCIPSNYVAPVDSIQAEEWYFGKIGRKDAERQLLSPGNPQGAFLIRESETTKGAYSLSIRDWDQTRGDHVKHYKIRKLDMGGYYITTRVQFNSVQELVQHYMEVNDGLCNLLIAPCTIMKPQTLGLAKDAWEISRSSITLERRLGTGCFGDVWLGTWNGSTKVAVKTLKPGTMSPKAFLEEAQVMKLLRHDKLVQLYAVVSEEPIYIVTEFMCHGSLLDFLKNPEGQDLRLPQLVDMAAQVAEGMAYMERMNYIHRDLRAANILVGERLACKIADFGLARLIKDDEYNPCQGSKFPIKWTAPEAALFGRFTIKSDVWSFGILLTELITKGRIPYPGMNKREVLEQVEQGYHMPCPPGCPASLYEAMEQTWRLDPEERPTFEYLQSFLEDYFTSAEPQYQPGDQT
The target in assay [5] is Serine/threonine-protein kinase Nek6 (Homo sapiens) (UniProt Q9HC98). Nature of the assay: Inhibition of human recombinant NEK6 at 40 nM in presence of ATP by radiometric assay relative to control.
Chain of Serine/threonine-protein kinase Nek6 (Homo sapiens) (Q9HC98 whole entry): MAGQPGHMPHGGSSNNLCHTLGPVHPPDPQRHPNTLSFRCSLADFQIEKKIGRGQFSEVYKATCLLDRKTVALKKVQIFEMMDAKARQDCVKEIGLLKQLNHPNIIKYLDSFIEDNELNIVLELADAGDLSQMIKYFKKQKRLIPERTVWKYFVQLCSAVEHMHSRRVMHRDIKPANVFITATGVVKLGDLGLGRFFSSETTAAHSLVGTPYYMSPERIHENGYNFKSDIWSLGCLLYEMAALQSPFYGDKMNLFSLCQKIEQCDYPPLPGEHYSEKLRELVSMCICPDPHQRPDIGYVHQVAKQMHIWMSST
Assay [6] has as its target Tyrosine-protein kinase Fgr (Homo sapiens) (UniProt P09769). Nature of the assay: Inhibition of human recombinant FGR at 500 nM in presence of ATP by radiometric assay relative to control.
Assay [7] has as its target Death-associated protein kinase 1 (Homo sapiens) (UniProt P53355). Nature of the assay: Inhibition of human recombinant DAPK1 at 500 nM related to control ULK1.
For assay [8], the target named is Serine/threonine-protein kinase 10 (Homo sapiens) (UniProt O94804). Nature of the assay: Inhibition of human recombinant LOK at 500 nM in presence of ATP by radiometric assay relative to control.
Chain of Serine/threonine-protein kinase 10 (Homo sapiens) (O94804 whole entry, looked up): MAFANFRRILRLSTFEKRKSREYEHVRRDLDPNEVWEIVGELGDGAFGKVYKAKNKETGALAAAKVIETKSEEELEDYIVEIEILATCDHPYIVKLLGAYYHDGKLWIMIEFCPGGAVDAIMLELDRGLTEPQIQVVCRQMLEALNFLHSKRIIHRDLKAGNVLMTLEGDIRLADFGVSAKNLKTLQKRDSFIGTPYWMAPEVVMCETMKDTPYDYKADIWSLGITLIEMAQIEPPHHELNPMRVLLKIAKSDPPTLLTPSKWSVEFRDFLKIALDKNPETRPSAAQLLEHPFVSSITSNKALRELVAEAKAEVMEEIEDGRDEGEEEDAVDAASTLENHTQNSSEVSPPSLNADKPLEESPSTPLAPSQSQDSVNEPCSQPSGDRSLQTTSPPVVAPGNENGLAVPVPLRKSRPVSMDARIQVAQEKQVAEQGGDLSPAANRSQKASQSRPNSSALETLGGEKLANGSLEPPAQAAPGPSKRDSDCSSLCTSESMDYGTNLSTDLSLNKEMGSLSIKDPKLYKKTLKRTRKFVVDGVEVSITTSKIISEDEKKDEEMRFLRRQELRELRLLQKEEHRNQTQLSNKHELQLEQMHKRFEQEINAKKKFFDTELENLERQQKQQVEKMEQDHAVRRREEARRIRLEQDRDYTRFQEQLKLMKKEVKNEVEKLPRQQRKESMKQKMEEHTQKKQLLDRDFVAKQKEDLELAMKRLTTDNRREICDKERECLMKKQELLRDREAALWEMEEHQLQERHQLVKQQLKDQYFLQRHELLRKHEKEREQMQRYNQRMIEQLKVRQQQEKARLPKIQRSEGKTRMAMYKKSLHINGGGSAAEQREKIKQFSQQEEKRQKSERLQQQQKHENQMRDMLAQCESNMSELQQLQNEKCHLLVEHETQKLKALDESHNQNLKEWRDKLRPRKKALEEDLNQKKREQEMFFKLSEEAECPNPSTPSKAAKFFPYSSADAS
Assay [9] addresses Glycogen synthase kinase-3 alpha (Homo sapiens) (UniProt P49840). Nature of the assay: Inhibition of human recombinant GSK3A at 500 nM in presence of ATP by radiometric assay relative to control.
For assay [10], the target named is T3, Serine/threonine-protein kinase tousled-like 1 (Homo sapiens) (UniProt Q9UKI8).
T3 sequence (whole entry): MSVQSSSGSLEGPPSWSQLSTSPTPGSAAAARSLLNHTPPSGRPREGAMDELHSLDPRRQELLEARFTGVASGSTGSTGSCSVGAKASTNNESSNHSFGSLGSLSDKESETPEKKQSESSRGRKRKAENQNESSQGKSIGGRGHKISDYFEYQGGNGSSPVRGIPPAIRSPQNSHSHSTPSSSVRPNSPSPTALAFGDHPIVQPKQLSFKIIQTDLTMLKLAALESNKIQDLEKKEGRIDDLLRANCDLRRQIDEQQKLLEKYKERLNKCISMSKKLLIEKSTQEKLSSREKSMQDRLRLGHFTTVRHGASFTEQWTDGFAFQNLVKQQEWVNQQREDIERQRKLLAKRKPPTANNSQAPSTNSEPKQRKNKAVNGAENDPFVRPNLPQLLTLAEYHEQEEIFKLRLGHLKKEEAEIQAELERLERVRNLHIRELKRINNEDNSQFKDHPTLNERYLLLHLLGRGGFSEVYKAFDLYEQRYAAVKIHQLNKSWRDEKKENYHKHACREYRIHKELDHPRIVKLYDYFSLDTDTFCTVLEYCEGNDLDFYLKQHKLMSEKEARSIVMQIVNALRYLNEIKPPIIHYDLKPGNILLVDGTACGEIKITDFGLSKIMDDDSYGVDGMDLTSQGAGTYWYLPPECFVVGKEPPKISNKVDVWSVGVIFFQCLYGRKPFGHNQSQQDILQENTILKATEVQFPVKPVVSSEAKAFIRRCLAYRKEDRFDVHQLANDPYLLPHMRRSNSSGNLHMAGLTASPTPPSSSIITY
Nature of the assay: Inhibition of human recombinant TLK1 at 500 nM related to control ULK1.

The target in assay [11] is Dual specificity protein kinase CLK1 (Homo sapiens) (UniProt P49759). Nature of the assay: Inhibition of human recombinant CLK1 at 500 nM related to control ULK1.
Chain of Dual specificity protein kinase CLK1 (Homo sapiens) (P49759 whole entry, looked up): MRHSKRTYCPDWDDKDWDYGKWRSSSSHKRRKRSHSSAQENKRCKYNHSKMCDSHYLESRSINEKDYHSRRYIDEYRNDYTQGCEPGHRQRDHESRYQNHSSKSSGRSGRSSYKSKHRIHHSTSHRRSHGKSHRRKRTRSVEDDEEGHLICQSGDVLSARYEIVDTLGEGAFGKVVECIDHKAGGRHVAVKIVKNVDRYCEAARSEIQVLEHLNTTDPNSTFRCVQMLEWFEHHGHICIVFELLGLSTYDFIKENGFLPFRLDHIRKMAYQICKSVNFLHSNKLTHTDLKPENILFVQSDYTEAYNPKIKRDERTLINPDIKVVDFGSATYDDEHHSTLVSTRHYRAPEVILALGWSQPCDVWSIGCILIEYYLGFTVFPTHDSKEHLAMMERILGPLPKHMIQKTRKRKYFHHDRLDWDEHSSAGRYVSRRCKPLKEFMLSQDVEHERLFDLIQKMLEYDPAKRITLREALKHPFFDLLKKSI
Assay [12] addresses Death-associated protein kinase 1 (Homo sapiens) (UniProt P53355). Nature of the assay: Inhibition of human recombinant DAPK1 at 15 nM related to control ULK1.

Chain of Death-associated protein kinase 1 (Homo sapiens) (P53355 whole entry, looked up): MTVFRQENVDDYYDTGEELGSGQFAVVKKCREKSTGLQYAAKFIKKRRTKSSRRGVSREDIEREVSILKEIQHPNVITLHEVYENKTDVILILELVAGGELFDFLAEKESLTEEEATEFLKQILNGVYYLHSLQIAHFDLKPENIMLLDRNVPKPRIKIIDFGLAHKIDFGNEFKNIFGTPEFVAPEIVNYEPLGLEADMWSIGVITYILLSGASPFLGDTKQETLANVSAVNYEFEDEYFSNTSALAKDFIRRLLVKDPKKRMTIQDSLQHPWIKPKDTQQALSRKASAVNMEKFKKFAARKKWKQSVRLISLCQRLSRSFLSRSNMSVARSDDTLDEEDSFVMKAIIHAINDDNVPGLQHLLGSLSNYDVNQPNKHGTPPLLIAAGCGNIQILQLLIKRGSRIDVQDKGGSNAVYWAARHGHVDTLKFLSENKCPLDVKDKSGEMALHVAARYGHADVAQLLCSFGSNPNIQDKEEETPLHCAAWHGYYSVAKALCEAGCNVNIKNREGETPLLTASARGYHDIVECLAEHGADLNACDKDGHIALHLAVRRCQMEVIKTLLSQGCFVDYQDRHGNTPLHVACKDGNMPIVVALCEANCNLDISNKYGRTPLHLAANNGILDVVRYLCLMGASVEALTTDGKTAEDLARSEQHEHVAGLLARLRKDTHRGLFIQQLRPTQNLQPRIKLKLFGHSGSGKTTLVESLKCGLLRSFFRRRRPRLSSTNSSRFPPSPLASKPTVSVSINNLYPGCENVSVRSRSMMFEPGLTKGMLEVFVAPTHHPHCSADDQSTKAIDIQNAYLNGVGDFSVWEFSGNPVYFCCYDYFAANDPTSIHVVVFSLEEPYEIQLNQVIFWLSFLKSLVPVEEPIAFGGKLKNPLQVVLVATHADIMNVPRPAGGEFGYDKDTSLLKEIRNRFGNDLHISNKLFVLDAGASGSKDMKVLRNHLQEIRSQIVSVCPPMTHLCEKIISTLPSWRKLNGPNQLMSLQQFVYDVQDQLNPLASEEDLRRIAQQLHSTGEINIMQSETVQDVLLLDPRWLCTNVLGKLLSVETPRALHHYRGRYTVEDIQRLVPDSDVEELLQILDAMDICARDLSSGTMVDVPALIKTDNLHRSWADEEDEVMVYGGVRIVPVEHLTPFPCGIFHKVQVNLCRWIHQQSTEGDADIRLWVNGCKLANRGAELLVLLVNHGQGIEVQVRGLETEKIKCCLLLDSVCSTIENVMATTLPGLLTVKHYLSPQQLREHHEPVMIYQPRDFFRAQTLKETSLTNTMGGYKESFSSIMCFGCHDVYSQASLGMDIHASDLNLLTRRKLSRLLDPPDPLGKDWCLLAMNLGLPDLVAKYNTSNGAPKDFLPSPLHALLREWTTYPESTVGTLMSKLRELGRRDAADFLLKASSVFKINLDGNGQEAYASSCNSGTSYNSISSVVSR
Chain of Glycogen synthase kinase-3 alpha (Homo sapiens) (P49840 2-483 limits assumed): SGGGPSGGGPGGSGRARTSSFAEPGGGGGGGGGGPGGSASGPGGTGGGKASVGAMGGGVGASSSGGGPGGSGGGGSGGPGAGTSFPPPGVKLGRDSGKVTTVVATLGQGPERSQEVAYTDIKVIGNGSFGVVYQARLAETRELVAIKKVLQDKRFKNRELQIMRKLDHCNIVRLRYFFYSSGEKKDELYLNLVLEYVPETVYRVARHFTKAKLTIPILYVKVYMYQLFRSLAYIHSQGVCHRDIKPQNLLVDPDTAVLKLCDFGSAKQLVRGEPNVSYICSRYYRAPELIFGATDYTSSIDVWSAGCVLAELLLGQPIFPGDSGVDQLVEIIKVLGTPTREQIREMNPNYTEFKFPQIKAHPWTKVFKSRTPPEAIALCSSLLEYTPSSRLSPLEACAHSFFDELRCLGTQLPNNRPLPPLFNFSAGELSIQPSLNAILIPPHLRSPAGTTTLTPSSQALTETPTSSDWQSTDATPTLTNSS

In general, inhibition refers to how much of the control response was suppressed. In the case of `O=C(N[C@@H](C1CC1)C(F)(F)F)c1cc(-c2cnn3cc(-c4ccc(F)cc4)cnc23)cs1`, the fold change (FC) in assay [1] was 0.01; in [2] it was 0.01; in [3] it was 0; in assay [4], 0.05. The inhibition in [5] amounted to 0%.

Turning to `CNC(=O)c1ccccc1Oc1nc(Nc2cc(OC)c(OC)c(OC)c2)ncc1Br`, the results for the inhibition in assay [6], in assay [8] and in assay [9] were 8%, 0% and 0%, respectively. The figures for the fold change (FC) in [7], in [10] and in assay [11] were 0, 0 and 0.07, respectively.

As for `CC(C)[C@H](NC(=O)c1cc(-c2cnn3cc(-c4ccc(OCCN5CCCCC5)cc4)cnc23)cs1)C(F)(F)F`, the fold change (FC) in assay [12] amounted to 0.05.
